Measured values: paper PMC12212144, “The VanS sensor histidine kinase from type-B vancomycin-resistant enterococci recognizes vancomycin directly” (The Journal of Biological Chemistry, 2025)

How the values were obtained:
[1] = target: full-length VanSB (in nanodiscs) (Enterococcus faecalis, UniProt Q47745); assay: biochemical
[2] = target: T1, single-copy VanSB periplasmic sensor domain (Enterococcus faecalis, UniProt Q47745); assay: biochemical
[3] = target: T2, tandem VanSB periplasmic sensor domain (Enterococcus faecalis, UniProt Q47745); assay: biochemical
T2 sequence (Q47745 31-132): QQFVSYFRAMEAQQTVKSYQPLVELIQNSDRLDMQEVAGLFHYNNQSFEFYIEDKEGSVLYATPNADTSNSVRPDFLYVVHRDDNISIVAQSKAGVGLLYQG

[4] = target: T2, tandem VanSB periplasmic sensor domain; assay: fluorescence anisotropy; type: binding; set-up: two copies of periplasmic domain Q31-G132 in one polypeptide joined by GSGGS linker; expressed in E. coli as TEV-cleavable 6xHis-MBP fusion, tag removed; conditions: labelled compound, 100 nM; 20 mM Tris pH 7.5, 100 mM NaCl, 0.01% Triton X-100, room temperature
[5] = target: T3, cVanSB (cytosolic domain of VanSB) (Enterococcus faecalis, UniProt Q47745); assay: autophosphorylation with ATPγS, anti-thiophosphohistidine (PNBM) Western blot; type: biochemical; conditions: 1 mM ATPγS, 10 mM MgCl2, pH 7.4; not affected by vancomycin
T3 construct: cytosolic domain M159-L447, C-terminal His6 (pETCH), expressed in E. coli
T3 sequence (Q47745 159-447): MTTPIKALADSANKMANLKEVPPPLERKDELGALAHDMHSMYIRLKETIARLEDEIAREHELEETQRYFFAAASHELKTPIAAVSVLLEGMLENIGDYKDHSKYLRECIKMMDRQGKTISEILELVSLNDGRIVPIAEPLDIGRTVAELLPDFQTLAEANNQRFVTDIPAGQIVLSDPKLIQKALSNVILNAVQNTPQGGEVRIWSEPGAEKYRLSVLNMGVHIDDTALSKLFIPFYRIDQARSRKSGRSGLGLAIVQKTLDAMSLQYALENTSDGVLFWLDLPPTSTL

[6] = target: T1, single-copy VanSB periplasmic sensor domain; assay: fluorescence anisotropy; type: binding; set-up: periplasmic sensor domain Q31-G132, single copy; expressed in E. coli as TEV-cleavable 6xHis-MBP fusion, tag removed; conditions: labelled compound, 100 nM; 20 mM Tris pH 7.5, 100 mM NaCl, 0.01% Triton X-100, room temperature

T1 sequence (Q47745 31-132): as the sequence (Q47745 31-132) above
full-length VanSB (in nanodiscs), sequence (Q47745 whole entry, the tested form may be a part): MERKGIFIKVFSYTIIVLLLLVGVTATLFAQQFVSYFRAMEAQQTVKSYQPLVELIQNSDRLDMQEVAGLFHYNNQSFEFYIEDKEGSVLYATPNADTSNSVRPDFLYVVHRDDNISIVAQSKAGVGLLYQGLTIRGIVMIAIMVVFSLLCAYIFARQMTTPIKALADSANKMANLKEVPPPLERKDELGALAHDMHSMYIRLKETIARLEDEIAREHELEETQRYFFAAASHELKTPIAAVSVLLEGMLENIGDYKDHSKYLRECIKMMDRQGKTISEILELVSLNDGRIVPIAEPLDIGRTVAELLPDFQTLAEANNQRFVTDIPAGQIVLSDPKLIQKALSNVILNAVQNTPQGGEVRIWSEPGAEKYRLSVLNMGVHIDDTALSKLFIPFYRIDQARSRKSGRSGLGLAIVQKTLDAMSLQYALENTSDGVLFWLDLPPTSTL

## CN[C@H](CC(C)C)C(=O)N[C@H]1C(=O)N[C@@H](CC(N)=O)C(=O)N[C@H]2C(=O)N[C@H]3C(=O)N[C@H](C(=O)N[C@H](C(=O)O)c4cc(O)cc(O)c4-c4cc3ccc4O)[C@H](O)c3ccc(c(Cl)c3)Oc3cc2cc(c3O[C@@H]2O[C@H](CO)[C@@H](O)[C@H](O)[C@H]2O[C@H]2C[C@](C)(N)[C@H](O)[C@H](C)O2)Oc2ccc(cc2Cl)[C@H]1O [vancomycin]
[1]
  EC50: 43 ± 12.5 µM
[2]
  Kd: 20.7 µM
[3]
  Kd: 11 µM

## AF488-vancomycin
[4]
  Kd: 11 µM

## Nc1ncnc2c1ncn2[C@@H]1O[C@H](COP(=O)(O)OP(=O)(O)OP(O)(O)=S)[C@@H](O)[C@H]1O [ATPγS]
[5]
  autophosphorylation with ATPγS, anti-thiophosphohistidine (PNBM) Western blot: autophosphorylation time course for full-length VanSB (reconstituted in nanodiscs) and its cytosolic domain

## CN[C@H](CC(C)C)C(=O)N[C@H]1C(=O)N[C@@H](CC(N)=O)C(=O)N[C@H]2C(=O)N[C@H]3C(=O)N[C@H](C(=O)N[C@H](C(=O)O)c4cc(O)cc(O)c4-c4cc3ccc4O)[C@H](O)c3ccc(c(Cl)c3)Oc3cc2cc(c3O[C@@H]2O[C@H](CO)[C@@H](O)[C@H](O)[C@H]2O[C@H]2C[C@](C)(NC(=O)CCc3ccc4n3[B-](F)(F)[N+]3=C(C)C=C(C)C3=C4)[C@H](O)[C@H](C)O2)Oc2ccc(cc2Cl)[C@H]1O [BODIPY-FL-vancomycin]
[6]
  Kd: 20.3 µM
[4]
  Kd: 10.7 µM
